Data reported in PubChem BioAssay AID330 (DTP/NCI, 2004).
Where “and” joins values, the source holds several entries; their conditions need not be identical. Equal values may be shown once. Toxic doses and inconclusive results are not listed. Rule for the calls: active = survival T/C of 150% or more; inactive = T/C below 125% in these data.

Tested on: P388 leukemia ip, CD2F1 mice, survival T/C
Assay: NCI In Vivo Anticancer Drug Screen. Data for tumor model P388 Leukemia (intraperitoneal) in CD2F1 (CDF1) mice
Conditions: endpoint: median survival time, higher = longer survival
Summary of the method: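 Mice carrying the transplanted tumor received test compound or vehicle. Survival was recorded in each group, and the value is the treated-group measurement divided by that of the vehicle-treated control group.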

[1] = dose: 50.0 mg/kg/injection, schedule: Q01DX009 (ip), vehicle: Klucel (hydroxypropylcellulose) (HPC)
[2] = dose: 100.0 mg/kg/injection, schedule: Q01DX009 (ip), vehicle: Klucel (hydroxypropylcellulose) (HPC)
[3] = dose: 100.0 mg/kg/injection, schedule: Q04DX002 (ip), vehicle: saline with Tween-80
[4] = dose: 100.0 mg/kg/injection, schedule: Q04DX003 (ip), vehicle: saline with Tween-80
[5] = dose: 200.0 mg/kg/injection, schedule: Q04DX003 (ip), vehicle: saline with Tween-80
[6] = dose: 400.0 mg/kg/injection, schedule: Q04DX003 (ip), vehicle: saline with Tween-80
[7] = dose: 50.0 mg/kg/injection, schedule: Q01DX009 (ip), vehicle: saline with Tween-80
[8] = dose: 60.0 mg/kg/injection, schedule: Q01DX005 (ip), vehicle: saline with Tween-80
[9] = dose: 120.0 mg/kg/injection, schedule: Q01DX005 (ip), vehicle: saline with Tween-80
[10] = dose: 240.0 mg/kg/injection, schedule: Q01DX005 (ip), vehicle: saline with Tween-80
[11] = dose: 200.0 mg/kg/injection, schedule: Q01DX009 (ip), vehicle: Klucel (hydroxypropylcellulose) (HPC)
[12] = dose: 6.25 mg/kg/injection, schedule: Q01DX009 (ip), vehicle: saline
[13] = dose: 12.5 mg/kg/injection, schedule: Q01DX009 (ip), vehicle: saline

Measured: T/C

CC1(C)CCC(C2=CC(=O)c3c(O)ccc(O)c3C2=O)O1 (stereo not given)
inactive: dose: 3.12 mg/kg/injection, schedule: Q01DX005 (ip), vehicle: saline with Tween-80 103 % of control | dose: 6.25 mg/kg/injection, schedule: Q01DX005 (ip), vehicle: saline with Tween-80 108 % of control | dose: 12.5 mg/kg/injection, schedule: Q01DX005 (ip), vehicle: saline with Tween-80 99 % of control

CN(C)NC(=S)Sc1ccccc1
inactive: [1] 100 % of control | [2] 99 % of control

S=C1SSC(=S)C1=C1C=CN(Cc2ccccc2)C=C1
inactive: dose: 25.0 mg/kg/injection, schedule: Q04DX002 (ip), vehicle: saline with Tween-80 102 % of control | dose: 50.0 mg/kg/injection, schedule: Q04DX002 (ip), vehicle: saline with Tween-80 99 % of control | [3] 100 % of control

CCOC(=O)NC(=O)CCC(=O)Nc1ccc2ccccc2c1
inactive: [4] 97 % of control | [5] 95 % of control | [6] 96 % of control

Cl/N=C(\Nc1ccccc1)c1ccccn1
inactive: [7] 105 % of control | dose: 100.0 mg/kg/injection, schedule: Q01DX009 (ip), vehicle: saline with Tween-80 96 % of control

NN1C(=O)CC(c2cccc(Cl)c2)C1=O (stereo not given)
inactive: [8] 92 % of control | [9] 92 % of control | [10] 92 % of control

Cc1c(C)c(C)c2c(c1C)CCC2O (stereo not given)
inactive: dose: 12.5 mg/kg/injection, schedule: Q01DX009 (ip), vehicle: saline with Tween-80 102 % of control and 100 % of control | dose: 25.0 mg/kg/injection, schedule: Q01DX009 (ip), vehicle: saline with Tween-80 105 % of control and 102 % of control | [7] 105 % of control and 100 % of control

O=C(COc1ccc(Cl)cc1Cl)N1CCNC1=S
inactive: [1] 100 % of control | [2] 103 % of control | [11] 100 % of control

CCN(CC)c1ccc(Cc2ccc(N(CC)CC)c3cccnc23)c2ncccc12
inactive: dose: 50.0 mg/kg/injection, schedule: Q01DX005 (ip), vehicle: Klucel (hydroxypropylcellulose) (HPC) 100 % of control | dose: 100.0 mg/kg/injection, schedule: Q01DX005 (ip), vehicle: Klucel (hydroxypropylcellulose) (HPC) 99 % of control | dose: 200.0 mg/kg/injection, schedule: Q01DX005 (ip), vehicle: Klucel (hydroxypropylcellulose) (HPC) 98 % of control

CC(=O)OC1CCC2(C)C(CCC3C2CCC2(C)C3CC(CC(=O)O)C2OC(C)=O)C1 (stereo not given)
inactive: dose: 25.0 mg/kg/injection, schedule: Q01DX009 (ip), vehicle: Klucel (hydroxypropylcellulose) (HPC) 92 % of control | [1] 92 % of control | [2] 93 % of control | [11] 97 % of control

COc1ccc(OC)c(C(/C=N/O)OC)c1 (stereo not given)
inactive: dose: 25.0 mg/kg/injection, schedule: Q04DX003 (ip), vehicle: saline with Tween-80 98 % of control and 100 % of control | dose: 50.0 mg/kg/injection, schedule: Q04DX003 (ip), vehicle: saline with Tween-80 98 % of control and 94 % of control | [4] 99 % of control and 87 % of control | [5] 103 % of control and 94 % of control | [6] 99 % of control

CN/N=C\c1cc2ccccc2c2ccccc12
inactive: dose: 50.0 mg/kg/injection, schedule: Q01DX005 (ip), vehicle: saline with Tween-80 96 % of control | dose: 100.0 mg/kg/injection, schedule: Q01DX005 (ip), vehicle: saline with Tween-80 91 % of control | dose: 200.0 mg/kg/injection, schedule: Q01DX005 (ip), vehicle: saline with Tween-80 88 % of control

CCCCCC(=O)C(=O)c1ccc(O)c(C)c1O
inactive: [1] 95 % of control | [2] 89 % of control

O=C(NCCN1CCOCC1)c1cc2ccccc2oc1=O
inactive: [8] 93 % of control | [9] 91 % of control | [10] 92 % of control

O=[N+]([O-])c1cccc(N=Cc2ccc(N(CCCl)CCCl)cc2)c1
inactive: dose: 50.0 mg/kg/injection, schedule: Q04DX003 (ip), vehicle: Klucel (hydroxypropylcellulose) (HPC) 106 % of control | dose: 100.0 mg/kg/injection, schedule: Q04DX003 (ip), vehicle: Klucel (hydroxypropylcellulose) (HPC) 104 % of control | dose: 200.0 mg/kg/injection, schedule: Q04DX003 (ip), vehicle: Klucel (hydroxypropylcellulose) (HPC) 100 % of control

CC(C)c1cccc(C(C)C)c1NC(=O)OCCN(C)C
inactive: [8] 100 % of control | [9] 115 % of control

CC(=O)Oc1cc2c(cc1OC(C)=O)OCC(c1ccc(C)cc1)C2 (stereo not given)
inactive: [8] 105 % of control | [9] 108 % of control | [10] 107 % of control

CCC(C)C(NC(=O)C(Cc1c[nH]c2ccccc12)NC(=O)OC(C)(C)C)C(=O)OC (stereo not given)
inactive: dose: 12.5 mg/kg/injection, schedule: Q01DX009 (ip), vehicle: other 99 % of control | dose: 25.0 mg/kg/injection, schedule: Q01DX009 (ip), vehicle: other 104 % of control | dose: 50.0 mg/kg/injection, schedule: Q01DX009 (ip), vehicle: other 104 % of control | dose: 100.0 mg/kg/injection, schedule: Q01DX009 (ip), vehicle: other 106 % of control | dose: 200.0 mg/kg/injection, schedule: Q01DX009 (ip), vehicle: other 110 % of control

SC1(S)CN2CCC1CC2
inactive: [12] 104 % of control | [13] 100 % of control

CC(C)=NO
inactive: dose: 50.0 mg/kg/injection, schedule: Q01DX009 (ip), vehicle: saline 117 % of control | dose: 100.0 mg/kg/injection, schedule: Q01DX009 (ip), vehicle: saline 100 % of control | dose: 200.0 mg/kg/injection, schedule: Q01DX009 (ip), vehicle: saline 101 % of control

O=C1CS(=O)(=O)C(c2cccnc2)N1CCN1C(=O)CS(=O)(=O)C1c1cccnc1 (stereo not given)
inactive: [3] 97 % of control | dose: 200.0 mg/kg/injection, schedule: Q04DX002 (ip), vehicle: saline with Tween-80 93 % of control | dose: 400.0 mg/kg/injection, schedule: Q04DX002 (ip), vehicle: saline with Tween-80 92 % of control

CCOC(=O)N(C)C(=O)CN(C=O)c1ncc([N+](=O)[O-])s1
inactive: dose: 100.0 mg/kg/injection, schedule: Q01DX001 (ip), vehicle: saline 101 % of control | dose: 200.0 mg/kg/injection, schedule: Q01DX001 (ip), vehicle: saline 101 % of control | dose: 400.0 mg/kg/injection, schedule: Q01DX001 (ip), vehicle: saline 100 % of control

[CH3][Ga][CH3].[CH3][Ga][CH3].[CH3][Ga][CH3].[CH3][Ga][CH3].[OH3+].[OH3+].[OH3+].[OH3+]
inactive: dose: 5.0 mg/kg/injection, schedule: Q04DX003 (ip), vehicle: saline with Tween-80 90 % of control | dose: 10.0 mg/kg/injection, schedule: Q04DX003 (ip), vehicle: saline with Tween-80 90 % of control

Clc1cc2c(c(CSc3nc4ccccc4n4cccc34)c1)OCOC2
inactive: [1] 96 % of control | [2] 96 % of control | [11] 98 % of control

COC(=O)C1=C(C(=O)OC)[C]([Hg][CH3])(C(=O)c2ccccc2)N=N1 (stereo not given)
inactive: [12] 93 % of control | [13] 103 % of control | dose: 25.0 mg/kg/injection, schedule: Q01DX009 (ip), vehicle: saline 90 % of control

C=C(C(=O)OC)C1C=CCC1 (stereo not given)
inactive: dose: 12.5 mg/kg/injection, schedule: Q01DX009 (ip), vehicle: distilled water + Tween-80 100 % of control | dose: 25.0 mg/kg/injection, schedule: Q01DX009 (ip), vehicle: distilled water + Tween-80 100 % of control | dose: 50.0 mg/kg/injection, schedule: Q01DX009 (ip), vehicle: distilled water + Tween-80 111 % of control | dose: 100.0 mg/kg/injection, schedule: Q01DX009 (ip), vehicle: distilled water + Tween-80 101 % of control | dose: 200.0 mg/kg/injection, schedule: Q01DX009 (ip), vehicle: distilled water + Tween-80 86 % of control

O=C1NC(=O)c2cc(C(F)(F)F)ccc21
inactive: dose: 3.0 mg/kg/injection, schedule: Q01DX009 (ip), vehicle: saline with Tween-80 95 % of control | dose: 6.0 mg/kg/injection, schedule: Q01DX009 (ip), vehicle: saline with Tween-80 104 % of control | dose: 12.0 mg/kg/injection, schedule: Q01DX009 (ip), vehicle: saline with Tween-80 90 % of control

NC/C(=N\Nc1ccc([N+](=O)[O-])cc1[N+](=O)[O-])c1ccccc1
inactive: dose: 100.0 mg/kg/injection, schedule: Q04DX003 (ip), vehicle: saline 100 % of control | dose: 200.0 mg/kg/injection, schedule: Q04DX003 (ip), vehicle: saline 113 % of control | dose: 400.0 mg/kg/injection, schedule: Q04DX003 (ip), vehicle: saline 95 % of control
